[ ]: non-standard residue; d: D form. Tic = O=C(O)[C@@H]1Cc2ccccc2CN1; Abu = CC[C@H](N)C(=O)O
How the values were obtained:
antral follicles = assay: envisaged case: patient with polycystic ovary syndrome treated with lanreotide acetate; type: in vivo, women; conditions: 120 mg/month, 4th month of treatment
[1] = tested on: primordial follicles of ewe ovarian cortex; assay: culture of ovarian cortex fragments of adult ewes for 10 days; type: cell-based; conditions: 10 days culture; for start of growth of the primordial follicles: vs control (FIG. 3)
Protocol: Ovaries of adult ewes are collected immediately after slaughter. The ovaries are placed in an organ transport medium without serum (X-vivo, Bio Whittaker, Walkersville, Md., USA) at 10° C. and transported to the laboratory. Approximately 1 h after removal, the cortex is isolated from the medulla then fractionated into slices of 2 mm thickness (1 cm^2, average weight of 212 mg) after rinsing in new X-vivo. The cortex fragments are cultured in an oven under 5% oxygen for 10 days in well plates in the presence of DMEM. The medium is changed every 2 days.
The procedure used is the same as for Example 1, except that the somatostatin is replaced with one of its agonist analogues, namely the synthetic peptide of formula c[Tic-Tyr-DTrp-Lys-Abu-Phe] (hereafter AG1 peptide).
The procedure used is the same as for Example 1, except that the somatostatin is replaced by one of its antagonist analogues, namely the synthetic peptide of formula Cpa-c(DCys-3-Pal-DTrp-NMeLys-Thr-Cys)-2-Nal-NH2 (hereafter ANT1 peptide).

Question: Which “ultrasound of the ovaries: ovarian volume and number of antral follicles” value (antral follicles) does the source give for CC(C)[C@@H]1NC(=O)[C@H](CCCCN)NC(=O)[C@@H](Cc2c[nH]c3ccccc23)NC(=O)[C@H](Cc2ccc(O)cc2)NC(=O)[C@@H](NC(=O)[C@H](N)Cc2ccc3ccccc3c2)CSSC[C@@H](C(=O)N[C@H](C(N)=O)[C@@H](C)O)NC1=O [lanreotide acetate] here?
Answer: The value was “reduction in ovarian volume and in the number of antral follicles”.

Question: With cyclo([Tic]Y[dW]K[Abu]F) [AG1 peptide] as the molecule, how does the “number of primary follicles” value ([1]; AG1 peptide 10^−9M, FIG. 4) read?
Answer: Its value is “absence of increase”.

Question: What about the “number of primordial follicles” value ([1]; AG1 peptide 10^−9M, FIG. 4) of the same molecule?
Answer: Its value is “maintenance over time”.

Question: And the “start of growth of the primordial follicles” value ([1]; AG1 peptide 10^−9M, FIG. 4)?
Answer: The value was “very significantly inhibits”.

Question: How did the “start of growth of the primordial follicles” value ([1]; ANT1 peptide 10^−6M, FIG. 5) turn out when “Cpa-c(DCys-3-Pal-DTrp-NMeLys-Thr-Cys)-2-Nal-NH2 [ANT1 peptide]” was run?
Answer: The value was “accentuates”.

Reference: patent US20100152102A1, “USE OF SO[…] ONE OF ITS ANALOGUES FOR PREPARING A […] TO REGULATE THE OVARIAN […] IN NON-[…]” (Preglem S.A., priority 2003, published 2010)
